# Test results from PubChem BioAssay (NCI).
#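 The compound was tested at five concentrations on cells cultured in 96-well plates, with a 48-hour exposure period. TGI denotes the concentration required for complete inhibition of growth.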
# Tests used:
# Test in all cases: NCI-60 cell line screen, 48 h
# [1] = tested on: 786-0 renal
# [2] = tested on: A498 renal
# [3] = tested on: A549 NSCLC
# [4] = tested on: ACHN renal
# [5] = tested on: CAKI-1 renal
# [6] = tested on: CCRF-CEM leukemia
# [7] = tested on: COLO 205 colon
# [8] = tested on: DU-145 prostate
# [9] = tested on: EKVX NSCLC
# [10] = tested on: HCC-2998 colon
# [11] = tested on: HCT-116 colon
# [12] = tested on: HCT-15 colon
# [13] = tested on: HL-60(TB) leukemia
# [14] = tested on: HOP-62 NSCLC
# [15] = tested on: HOP-92 NSCLC
# [16] = tested on: HS 578T breast
# [17] = tested on: HT29 colon
# [18] = tested on: IGROV1 ovarian
# [19] = tested on: K-562 leukemia
# [20] = tested on: KM12 colon
# [21] = tested on: LOX IMVI melanoma
# [22] = tested on: M14 melanoma
# [23] = tested on: MALME-3M melanoma
# [24] = tested on: MCF7 breast
# [25] = tested on: MDA-MB-231 breast
# [26] = tested on: MDA-MB-435
# [27] = tested on: MDA-N
# [28] = tested on: MOLT-4 leukemia
# [29] = tested on: NCI-H226 lung
# [30] = tested on: NCI-H23 lung
# [31] = tested on: NCI-H460 lung
# [32] = tested on: NCI-H522 lung
# [33] = tested on: NCI/ADR-RES ovarian
# [34] = tested on: OVCAR-3 ovarian
# [35] = tested on: OVCAR-4 ovarian
# [36] = tested on: OVCAR-5 ovarian
# [37] = tested on: OVCAR-8 ovarian
# [38] = tested on: PC-3 prostate
# [39] = tested on: RPMI-8226 leukemia
# [40] = tested on: RXF 393 renal
# [41] = tested on: SF-268 CNS
# [42] = tested on: SF-295 CNS
# [43] = tested on: SF-539 CNS
# [44] = tested on: SK-MEL-2 melanoma
# [45] = tested on: SK-MEL-28 melanoma
# [46] = tested on: SK-MEL-5 melanoma
# [47] = tested on: SK-OV-3 ovarian
# [48] = tested on: SN12C renal
# [49] = tested on: SNB-19 CNS
# [50] = tested on: SNB-75 CNS
# [51] = tested on: SR leukemia
# [52] = tested on: SW-620 colon
# [53] = tested on: T-47D breast
# [54] = tested on: TK-10 renal
# [55] = tested on: U251 CNS
# [56] = tested on: UACC-257 melanoma
# [57] = tested on: UACC-62 melanoma
# [58] = tested on: UO-31 renal
# [59] = tested on: BT-549 breast
compound,measurement,setting,value
CN(C)C=Nc1cccc2c1NSN2,TGI,[1],> 100 µM
same,TGI,[2],> 100 µM
same,TGI,[3],> 100 µM
same,TGI,[4],> 100 µM
same,TGI,[5],> 100 µM
same,TGI,[6],> 100 µM
same,TGI,[7],> 100 µM
same,TGI,[8],> 100 µM
same,TGI,[9],> 100 µM
same,TGI,[10],> 100 µM
same,TGI,[11],> 100 µM
same,TGI,[12],> 100 µM
same,TGI,[13],> 100 µM
same,TGI,[14],> 100 µM
same,TGI,[15],> 100 µM
same,TGI,[16],> 100 µM
same,TGI,[17],> 100 µM
same,TGI,[18],> 100 µM
same,TGI,[19],> 100 µM
same,TGI,[20],> 100 µM
same,TGI,[21],> 100 µM
same,TGI,[22],> 100 µM
same,TGI,[23],> 100 µM
same,TGI,[24],> 100 µM
same,TGI,[25],> 100 µM
same,TGI,[26],> 100 µM
same,TGI,[27],> 100 µM
same,TGI,[28],> 100 µM
same,TGI,[29],> 100 µM
same,TGI,[30],> 100 µM
same,TGI,[31],> 100 µM
same,TGI,[32],> 100 µM
same,TGI,[33],> 100 µM
same,TGI,[34],> 100 µM
same,TGI,[35],> 100 µM
same,TGI,[36],> 100 µM
same,TGI,[37],> 100 µM
same,TGI,[38],> 100 µM
same,TGI,[39],> 100 µM
same,TGI,[40],> 100 µM
same,TGI,[41],> 100 µM
same,TGI,[42],> 100 µM
same,TGI,[43],> 100 µM
same,TGI,[44],> 100 µM
same,TGI,[45],> 100 µM
same,TGI,[46],> 100 µM
same,TGI,[47],> 100 µM
same,TGI,[48],> 100 µM
same,TGI,[49],> 100 µM
same,TGI,[50],> 100 µM
same,TGI,[51],> 100 µM
same,TGI,[52],> 100 µM
same,TGI,[53],> 100 µM
same,TGI,[54],> 100 µM
same,TGI,[55],> 100 µM
same,TGI,[56],> 100 µM
same,TGI,[57],> 100 µM
same,TGI,[58],> 100 µM
Oc1ccccc1/C=N/N1C(=S)N(c2ccccc2)C(=Nc2ccccc2)C1=Nc1ccccc1,TGI,[1],14.1 µM
same,TGI,[2],17.2 µM
same,TGI,[3],37.7 µM
same,TGI,[4],17.5 µM
same,TGI,[5],29.6 µM
same,TGI,[6],> 62.9 µM
same,TGI,[7],11.3 µM
same,TGI,[8],> 68.3 µM
same,TGI,[9],32.2 µM
same,TGI,[10],> 78.2 µM
same,TGI,[11],26.5 µM
same,TGI,[12],> 100 µM
same,TGI,[13],> 86.1 µM
same,TGI,[14],22.6 µM
same,TGI,[15],16.3 µM
same,TGI,[16],37.7 µM
same,TGI,[17],12.7 µM
same,TGI,[18],30.8 µM
same,TGI,[19],> 64.7 µM
same,TGI,[20],> 100 µM
same,TGI,[21],36.2 µM
same,TGI,[22],28.7 µM
same,TGI,[23],> 54.6 µM
same,TGI,[24],> 100 µM
same,TGI,[25],24.1 µM
same,TGI,[26],> 60 µM
same,TGI,[27],> 52.1 µM
same,TGI,[28],> 89.5 µM
same,TGI,[29],26.4 µM
same,TGI,[30],24.9 µM
same,TGI,[31],32.4 µM
same,TGI,[32],12.6 µM
same,TGI,[33],41 µM
same,TGI,[34],28.2 µM
same,TGI,[35],15.2 µM
same,TGI,[36],> 52.4 µM
same,TGI,[37],18.2 µM
same,TGI,[38],47.2 µM
same,TGI,[39],> 72.8 µM
same,TGI,[40],18.1 µM
same,TGI,[41],26.7 µM
same,TGI,[42],23.2 µM
same,TGI,[43],17.9 µM
same,TGI,[44],42.9 µM
same,TGI,[45],80.5 µM
same,TGI,[46],40.9 µM
same,TGI,[47],30.7 µM
same,TGI,[48],28.2 µM
same,TGI,[49],20.7 µM
same,TGI,[50],11.4 µM
same,TGI,[51],> 81.2 µM
same,TGI,[52],> 54.1 µM
same,TGI,[53],75.6 µM
same,TGI,[54],20.8 µM
same,TGI,[55],14.2 µM
same,TGI,[56],> 68 µM
same,TGI,[57],29.3 µM
same,TGI,[58],33.1 µM
CSc1cc(Cl)c(C)cc1S(=O)(=O)NC(=O)NNc1cnc2ccccc2n1,TGI,[1],> 100 µM
same,TGI,[2],> 100 µM
same,TGI,[3],> 100 µM
same,TGI,[4],> 100 µM
same,TGI,[5],> 100 µM
same,TGI,[6],> 100 µM
same,TGI,[7],> 100 µM
same,TGI,[8],> 100 µM
same,TGI,[9],> 100 µM
same,TGI,[10],> 100 µM
same,TGI,[11],> 100 µM
same,TGI,[12],> 100 µM
same,TGI,[14],> 100 µM
same,TGI,[16],> 100 µM
same,TGI,[17],> 100 µM
same,TGI,[18],> 100 µM
same,TGI,[19],> 100 µM
same,TGI,[20],> 100 µM
same,TGI,[21],> 100 µM
same,TGI,[22],> 100 µM
same,TGI,[23],> 100 µM
same,TGI,[24],> 100 µM
same,TGI,[25],> 100 µM
same,TGI,[26],> 100 µM
same,TGI,[27],> 100 µM
same,TGI,[28],56.8 µM
same,TGI,[29],> 100 µM
same,TGI,[31],> 100 µM
same,TGI,[32],> 100 µM
same,TGI,[33],> 100 µM
same,TGI,[34],> 100 µM
same,TGI,[35],> 100 µM
same,TGI,[36],> 100 µM
same,TGI,[37],> 100 µM
same,TGI,[38],> 100 µM
same,TGI,[40],> 100 µM
same,TGI,[41],> 100 µM
same,TGI,[42],> 100 µM
same,TGI,[43],> 100 µM
same,TGI,[44],> 100 µM
same,TGI,[45],> 100 µM
same,TGI,[46],> 100 µM
same,TGI,[47],> 100 µM
same,TGI,[48],> 100 µM
same,TGI,[49],> 100 µM
same,TGI,[51],> 100 µM
same,TGI,[52],> 100 µM
same,TGI,[53],> 100 µM
same,TGI,[55],> 100 µM
CCOC(=O)C(/C=N/C(N)=S)=C(/O)c1ccccc1,TGI,[1],> 100 µM
same,TGI,[2],> 100 µM
same,TGI,[3],> 100 µM
same,TGI,[4],> 100 µM
same,TGI,[59],> 100 µM
same,TGI,[5],> 100 µM
same,TGI,[7],> 100 µM
same,TGI,[8],> 100 µM
same,TGI,[9],> 100 µM
same,TGI,[10],> 100 µM
same,TGI,[11],> 100 µM
same,TGI,[12],> 100 µM
same,TGI,[13],> 100 µM
same,TGI,[14],> 100 µM
same,TGI,[15],> 100 µM
same,TGI,[17],> 100 µM
same,TGI,[18],> 100 µM
same,TGI,[20],> 100 µM
same,TGI,[21],> 100 µM
same,TGI,[22],> 100 µM
same,TGI,[24],> 100 µM
same,TGI,[25],> 100 µM
same,TGI,[26],> 100 µM
same,TGI,[27],> 100 µM
same,TGI,[28],> 100 µM
same,TGI,[29],> 100 µM
same,TGI,[30],> 100 µM
same,TGI,[31],> 100 µM
same,TGI,[33],> 100 µM
same,TGI,[34],> 100 µM
same,TGI,[35],> 100 µM
same,TGI,[36],> 100 µM
same,TGI,[37],> 100 µM
same,TGI,[40],> 100 µM
same,TGI,[41],> 100 µM
same,TGI,[42],> 100 µM
same,TGI,[43],> 100 µM
same,TGI,[44],> 100 µM
same,TGI,[45],> 100 µM
same,TGI,[46],> 100 µM
same,TGI,[47],> 100 µM
same,TGI,[48],> 100 µM
same,TGI,[49],> 100 µM
same,TGI,[50],> 100 µM
same,TGI,[52],> 100 µM
same,TGI,[53],> 100 µM
same,TGI,[54],> 100 µM
same,TGI,[55],> 100 µM
same,TGI,[56],> 100 µM
same,TGI,[57],> 100 µM
same,TGI,[58],> 100 µM
